Earlier results on one compound are cited in patent publication US20260306436A1, “TRETINOIN LIPOSOME FORMULATIONS AND USES THEREOF TO TREAT CANCER” (Highfield BioPharmaceuticals Corporation, priority 2023, published 2026).

The subject of series [1] is BSA. The settings on record: stated for the release system with BSA.
For series [2] the following is noted: background statement.
The conditions of series [3]: background statement. This is another data set of the same source.

For `CC1=C(/C=C/C(C)=C/C=C/C(C)=C/C(=O)O)C(C)(C)CCC1` [all-trans retinoic acid], in series [1], the Protein binding rate was 95%. In series [2], the Water solubility entry is “very low”. Further, the Plasma half-life entry in series [3] is on record as “short”.
